IC50, Kd and MIC data for 13 molecules are collected here from ChEMBL document CHEMBL5096190, “Recent advances of quinones as a privileged structure in drug discovery” (Eur J Med Chem, 2021).

Assay [1] has as its target T1, Arylsulfatase A (Homo sapiens, UniProt P15289).
T1 sequence (P15289 whole entry): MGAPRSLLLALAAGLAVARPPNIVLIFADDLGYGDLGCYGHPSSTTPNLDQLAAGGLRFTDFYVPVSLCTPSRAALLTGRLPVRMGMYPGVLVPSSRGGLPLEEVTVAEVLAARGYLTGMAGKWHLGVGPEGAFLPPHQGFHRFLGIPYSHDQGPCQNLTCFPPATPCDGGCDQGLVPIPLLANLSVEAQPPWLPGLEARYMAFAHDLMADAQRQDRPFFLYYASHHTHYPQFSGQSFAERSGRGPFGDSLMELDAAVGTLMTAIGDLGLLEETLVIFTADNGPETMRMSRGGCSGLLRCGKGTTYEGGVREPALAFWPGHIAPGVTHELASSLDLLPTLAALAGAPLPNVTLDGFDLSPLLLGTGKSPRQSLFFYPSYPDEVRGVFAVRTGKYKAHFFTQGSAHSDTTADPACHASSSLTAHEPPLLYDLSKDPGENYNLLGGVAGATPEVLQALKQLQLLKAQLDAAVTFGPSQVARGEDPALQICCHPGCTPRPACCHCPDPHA
Briefly: Inhibition of ARSA (unknown origin) using 4-methylumbelliferyl sulfate (4-MUS) as a substrate by fluorescent assay.

The target in assay [2] is T1, Arylsulfatase A. Briefly: Binding affinity to ARSA (unknown origin) assessed as dissociation constant by SPR analysis.
In assay [3] the test system is GBM. In words: Anticancer activity against human GBM cells assessed as cell growth inhibition incubated for 72 hrs. Format: functional, cell-based.
The nature of assay [4]: Inhibition of NFAT activity in human GBM cells. Format: cell-based.
For assay [5], the system named is U-87 MG. Briefly: Cytotoxicity against human U87 cells assessed as reduction in cell viability measured after 72 hrs by MTT assay. In kind it is functional, cell-based, U-87MG ATCC.
Assay [6] deals with SGC-7901. In words: Cytotoxicity against human SGC-7901 cells assessed as reduction in cell viability measured after 72 hrs by MTT assay. Format: functional, cell-based. Particulars: SGC-7901, 72 h. On the technique in general: Tetrazolium assays rely on reduction of a dye to a coloured formazan, in cell work by metabolically active cells.
In assay [7] the test system is MGC-803. In words: Cytotoxicity against human MGC-803 cells assessed as reduction in cell viability measured after 72 hrs by MTT assay. Format: functional, cell-based. Particulars: MGC-803, 72 h.
For assay [8], the system named is Enterococcus hirae. In words: Antibacterial activity against Enterococcus hirae ATCC 10541 assessed as growth inhibition after 24 hrs by two-fold serial dilution method. In kind it is functional.
Assay [9] in a line: Inhibition of Hepatitis C virus NS3 helicase measured by fluorescence helicase assay. The arrangement: species or system Hepacivirus hominis.
Assay [10] has as its system PANC-1. Briefly: Antitumor activity against human PANC-1 cells assessed as reduction in cell viability and incubated for 3 hrs by MTT assay. Particulars: PANC-1, 3 h. In kind it is functional, cell-based.
The test system of assay [11] is MIA PaCa-2. In words: Antitumor activity against human MIA PaCa-2 cells assessed as reduction in cell viability and incubated for 3 hrs by MTT assay. In kind it is functional, cell-based. Particulars: MIA PaCa-2, 3 h.
The test system of assay [12] is BXPC-3. Briefly: Antitumor activity against human BXPC-3 cells assessed as reduction in cell viability and incubated for 3 hrs by MTT assay. Format: functional, cell-based. Particulars: BXPC-3, 3 h.
Assay [13] concerns the target Cholinesterase (Homo sapiens, UniProt P06276). In words: Inhibition of human BuChE at 550 uM using butyrylthiocholine chloride as substrate by Ellman's method. On the technique in general: DTNB colorimetry detects thiols as they appear.
In assay [14] the test system is MOLT-4. Briefly: Cytotoxicity against human MOLT-4 cells assessed as inhibition of cell growth incubated for 24 to 72 hrs by MTT assay. Format: functional, cell-based.

In brackets after ≈: the same amount, converted by molar mass.

Chain of Cholinesterase (P06276 whole entry): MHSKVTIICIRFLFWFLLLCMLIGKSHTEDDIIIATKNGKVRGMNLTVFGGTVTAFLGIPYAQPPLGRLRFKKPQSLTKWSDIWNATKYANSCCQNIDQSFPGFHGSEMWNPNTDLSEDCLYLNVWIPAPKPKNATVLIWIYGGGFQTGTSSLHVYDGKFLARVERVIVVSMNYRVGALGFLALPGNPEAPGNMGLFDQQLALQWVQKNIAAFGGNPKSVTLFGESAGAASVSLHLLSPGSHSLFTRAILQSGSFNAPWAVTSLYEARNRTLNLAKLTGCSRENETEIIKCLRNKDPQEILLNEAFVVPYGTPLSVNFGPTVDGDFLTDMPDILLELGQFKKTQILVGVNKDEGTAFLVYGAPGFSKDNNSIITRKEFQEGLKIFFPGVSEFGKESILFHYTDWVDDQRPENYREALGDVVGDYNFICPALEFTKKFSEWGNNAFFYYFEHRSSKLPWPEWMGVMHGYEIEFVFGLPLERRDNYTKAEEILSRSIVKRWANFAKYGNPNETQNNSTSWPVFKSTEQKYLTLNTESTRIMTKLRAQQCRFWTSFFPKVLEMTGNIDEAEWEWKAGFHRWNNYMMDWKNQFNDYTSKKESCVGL

In general, IC50 refers to the concentration at which inhibition is half-maximal. By Kd is commonly meant the constant that tells how readily two partners part at equilibrium. `O=C1C=CC(=O)c2c1ccc1c2c(=O)oc2c3ccccc3ccc12` had an IC50 in [1] of 13.2 µM. For the same molecule, the Kd in assay [2] is 21 µM. On to `Nc1c(-c2cccnc2)ncc2c1C(=O)c1c(-c3ccccn3)nn(-c3ccc(F)cc3F)c1C2=O`, for which the IC50 in [3] was 25 µM. Consider `O=C1C=C(Nc2ccc3cnccc3c2)c2ccccc2C1=O`, for which the IC50 in assay [4] was determined as 0.82 µM. Regarding `CC(C)=CCC(OC(=O)CCC(=O)Nc1ccc(Oc2ccccc2)cc1)C1=CC(=O)c2c(O)ccc(O)c2C1=O` (stereo not drawn), the IC50 came out at 3.8 µM in assay [5], 4.1 µM in [6] and 4.1 µM in assay [7].

Broadly, the MIC is the lowest concentration found to suppress growth. Take `NC1=C(NC(=O)Cn2cc(CCBr)nn2)C(=O)c2ccccc2C1=O`: in [8], the MIC was found to be 4 µg/mL (≈ 9.9 µM). The molecule `O=C(O)c1cc(O)c2c(c1)[C@H]([C@@H]1c3cccc(O)c3C(=O)c3c(O)cc(C(=O)O)cc31)c1cccc(O)c1C2=O` had an IC50 in [9] of 0.8 µM.

Consider `NC1=C(NC(=O)Cn2cc(CC3CCCCC3)nn2)C(=O)c2ccccc2C1=O`, for which the MIC in assay [8] turned out to be 4 µg/mL (≈ 10.2 µM).

In assay [9], `O=C1c2c(O)ccc(O)c2C(=O)c2c(O)ccc(O)c21` came in with an IC50 of 6 µM.

As for `CC(=O)c1ccccc1NC1=CC(=O)c2ncncc2C1=O`, the IC50 was found to be 2.2 µM in assay [10], 1.9 µM in assay [11] and 2.7 µM in assay [12].

In the case of `CC1=C(NC2CCN(Cc3ccccc3)CC2)C(=O)c2ccccc2C1=O`, in [13], the IC50 was 0.0957 µM. For the molecule `Nc1c(-c2ccccc2)ncc2c1C(=O)c1c(-c3ccccn3)nn(-c3ccc(F)cc3F)c1C2=O`, the IC50 in assay [3] worked out at 25 µM. `C[C@@]12CCC(=O)c3coc(c31)C(=O)c1cc3c(cc12)C(=O)C=CC3=O` [HELENAQUINONE]: the IC50 in [14] came out at 1.44 µM. With `Cc1cc(O)c2c(=O)c3c(O)cc(O)c4c5c(O)cc(O)c6c(=O)c7c(O)cc(C)c8c1c2c(c34)c(c78)c65` [HYPERICIN], in assay [9], the IC50 came to 3 µM.
